The values that follow come from US20250186446A1, “ORGANIC COMPOUNDS” (INTRA-CELLULAR THERAPIES, INC., priority 2022, published 2025).

What all share (assay type): in vivo, mouse
Data set [1] has as its system E0771 murine breast cancer cells. Description: E0771 syngeneic breast cancer tumor growth in mice. As to conditions: E0771 tumors. The procedure: E0771 murine breast cancer cells are obtained from the American Type Culture Collection (ATCC) and maintained in DMEM medium containing 10% fetal bovine serum, 4 mM glutamine, 20 mM HEPES, and 1% penicillin/streptomycin. The cells are cultured in tissue culture flasks in a humidified incubator at 37° C., in an atmosphere of 5% CO2 and 95% air. The E0771 tumor cells used for implantation are harvested and re-suspended at a concentration of 2.5×10^6 cells/mL in cold PBS. Nine weeks old female C57Bl/6 mice (C57Bl/6J, Jackson Laboratory) are injected subcutaneously in the right flank with 0.5×10^6 cells in 0.2 mL cold PBS. 10 days later the mice have a palpable size tumor, and specified size to start treatments (around 100 mm^3). Mice are randomized in groups after the tumors are measured with a caliper in two dimensions to monitor size. Tumor size is calculated using the formula: Tumor Volume (mm^3)=(w^2×1)/2 where w=width and l=length, in mm. Tumors are measured twice per week for the duration of the study. Each mouse is euthanized as it reached a tumor volume endpoint of 1500 mm^3 or if they show any type of discomfort, whichever comes first.
[…] Compound A is synthesized at Intra-Cellular Therapies Inc. Compound A diets are used to treat mice. Compound A diet 900 ppm (diet supplements 900 mg of Compound A per kg to Picolab Rodent Diet 5053) is produced by Envigo (Madison WI). Mice are dosed 5 days a week with vehicle or Compound A.
(§1) The anti-PD-1 RMP1-14 (Lot No. 800121F12A) and isotype (Lot No. 749620N1) antibody are purchased from BioXCell. The stock solution is diluted in PBS to yield a dosing solution of 0.1 or 1 mg/mL, which delivered 1 or 10 mg/kg respectively in a dosing volume of 0.2 mL (10 mL/kg, for a […]). Mice are administered isotype or anti-PD-1 RMP1-14 intraperitoneally in 0.2 mL (10 mL/kg, for a […]) twice a week.
Mice are treated with Compound B alone, anti-PD-1 antibody alone, or the combination of Compound B and anti-PD-1 antibody. Compound B is synthesized at Intra-Cellular Therapies Inc. Compound B diets are used to treat mice. […]

The subject of data set [2] is 4T1 murine breast cancer cells. Description: 4T1 syngeneic breast cancer tumor growth and survival in mice. As to conditions: 4T1 tumors. The procedure:
(§2) 4T1 murine breast cancer cells are obtained from the American Type Culture Collection (ATCC) and maintained in RPMI medium containing 10% fetal bovine serum, 4 mM glutamine, and 1% penicillin/streptomycin. The cells were cultured in tissue culture flasks in a humidified incubator at 37° C., in an atmosphere of 5% CO2 and 95% air. The 4T1 tumor cells used for implantation are harvested and re-suspended at a concentration of 50×10^3 cells/mL in cold PBS. Nine weeks old female Balb/c mice (Balb/cJ, Jackson Laboratory) are injected subcutaneously in the right flank with 10×10^3 cells in 0.2 mL cold PBS. […] Mice are randomized in groups after the tumors are measured with a caliper in two dimensions to monitor size. Tumor size is calculated using the formula: Tumor Volume (mm^3)=(w^2×1)/2 where w=width and l=length, in mm. Tumors are measured twice per week for the duration of the study. Each mouse is euthanized as it reached a tumor volume endpoint of 1500 mm^3 or if they show any type of discomfort, whichever comes first.
as §1
as §2, with “(mm^3) (w^2×1)/2” for “(mm^3)=(w^2×1)/2”

A short description of data set [3]: LC/MS/MS quantification of drug exposure in E0771 tumor-bearing mice. How it is done: (§3) Tumor, liver, and feces samples are diluted in phosphate buffer and homogenized using ultrasonic processor. Plasma and homogenized tissue samples along with a set of standard and quality control samples are extracted by way of protein precipitation technique on Ostro plate (Waters) using 1% formic acid in acetonitrile spiked with internal standard. 2 μL of the filtered samples are injected using an autosampler and separated chromatographically using a Phenomenex, Synergi™, […], 50×3 mm, Polar-RP column, isocratic mobile phase combination of 0.1% formic acid in water and 0.1% formic acid in acetonitrile (40/60) with flow rate of 0.8 mL/min. The Sciex Qtrap 6500 mass spectrometer is used as the detector with positive electrospray in MRM ionization mode and an ion source temperature of 650° C. Quantification of Compound A is carried out using a calibration curve established with standards for the corresponding analyte concentration, retention time and mass profile.
Tumor, liver, and feces samples are diluted in phosphate buffer and homogenized using ultrasonic processor. […] Quantification of Compound B is carried out using a calibration curve established with standards for the corresponding analyte concentration, retention time and mass profile.

Data set [4] in a line: LC/MS/MS quantification of drug exposure in 4T1 tumor-bearing mice. As to conditions: in absence or presence of anti-PD1. How it is done: as §3
Where [5] appears, read: Example 2, Compound A 300 ppm or 900 ppm in diet, monotherapy or with anti-PD1 10 mg/kg.

Turning to `CC(=O)c1ccc(Cn2nc3c(c2Nc2ccc(F)cc2)C(=O)N(C)C2=NC(C)(C)CN23)cc1` [Compound B], the “tumor volume or weight relative to isotype (control) and/or anti-PD1 alone” value in data set [1] (Example 3, Compound B 100, 300 or 900 ppm in diet, monotherapy or with anti-PD1 1 mg/kg) is given as “significantly reduces”. The tumor volume result in data set [2] (Example 4, Compound B 100, 300 or 900 ppm in diet, anti-PD1 10 mg/kg, alone or combined, anti-PD1 alone: after day 5, vs isotype and/or anti-PD1 alone) is “significantly reduces”. The “tumor weight at terminal sacrifice” value in data set [2] (Example 4, Compound B 100, 300 or 900 ppm in diet, anti-PD1 10 mg/kg, alone or combined, treatment day 14, vs isotype and/or anti-PD1 alone) is reported as “significantly reduces”. The “exposure in plasma and tissues” value in data set [3] (Example 3, Compound B in diet, in absence or presence of anti-PD1) is “comparable”; in data set [4] (Example 4, Compound B in diet), “comparable”.
Turning to `CN1C(=O)c2c(nn(Cc3ccc(-c4cccc(F)n4)cc3)c2Nc2ccccc2)N2C1=N[C@@H]1CCC[C@@H]12` [Compound A], the tumor volume result in data set [1] (Example 1, C57Bl/6 mice, Compound A 900 ppm in diet, anti-PD1 10 mg/kg ip, alone or combined, day 3, 7, 10, 14, 17, vs isotype control) is “Neither Compound A (900 ppm) treatment alone nor anti-PD-1 antibody (10 mg/kg) treatment alone shows a significant effect”. Also, the “tumor weight at terminal sacrifice” value in data set [1] (Example 1, Compound A 900 ppm in diet, anti-PD1 10 mg/kg, alone or combined, treatment day 17, vs isotype control) is on record as “Neither Compound A (900 ppm) treatment alone nor anti-PD-1 antibody (10 mg/kg) treatment alone shows a significant effect”. In data set [2] (setting [5]), the survival of animals result is “improved” and the “tumor volume or weight relative to isotype (control)” value is “significantly reduce”. Moreover, in data set [3] (Example 1, Compound A 900 ppm in diet, all groups receiving Compound A), the “drug exposures in plasma, tissues, and feces” value is reported as “comparable”. In addition, the “exposure in plasma and tissues” value in data set [4] (Example 2, Compound A in diet) is recorded as “comparable”.
